How the values were obtained:
[1] = system: L0, L1, L2 GBM patient-derived cell line xenografts; assay: In vivo survival with FABP7 inhibitor and/or 2-DG, Kaplan-Meier and Cox frailty model; set-up: species or system NOD-SCID mice; details: Cox frailty model, all three GBM cell lines grouped
hGBM SCCs and FCCs = assay: Cell death by flow cytometry (propidium iodide incorporation, cleaved caspase 3); format: cell-based, human; details: for apoptotic cell death (cleaved caspase 3) in SCCs: unlike FCCs, 24 hours of treatment
Procedure: Propidium iodide incorporation and expression of cleaved caspase 3 were used to compare the effects of glucose restriction and/or mitochondrial function inhibition (by rotenone or metformin treatment). Briefly, cells were labeled with CellTrace dye and grown in complete medium for 5-7 days before being placed in high glucose (HG; >500 mg/dL) or physiological glucose conditions (PG; 90-110 mg/dL) and/or treated with rotenone (0.5-1 μM) or metformin (10-20 mM) for 24 hours. Media glucose concentrations were monitored daily and maintained constant throughout the experiments by adding glucose to the cell cultures as needed, which prevented the glucose supply exhaustion that might have occurred due to FCCs' higher division rate.
(§1) Propidium iodide and cleaved caspase 3 staining were quantified using flow cytometry. The effects of restricting glucose along with mitochondrial targeting using rotenone or metformin were investigated using the CyQUANT™ assay. Cells were plated at 60,000 cells per well in 96-well plates and exposed to the treatments alone or in combination (physiological glucose, 0.5 μM rotenone, and 10 mM metformin). CyQUANT™ binding dye was added to each well and incubated for 30 min at 37° C. before being quantified using Biotek™ Cytation™ 3 Cell Imaging Multi-Mode Reader.

hGBM cells = assay: CyQUANT assay, glucose restriction combined with mitochondrial targeting; format: cell-based, human; details: physiological glucose plus 0.5 μM rotenone or 10 mM metformin, 24 hours
Procedure: as §1

[2] = system: L1 SCC, FCC or total unsorted intracranial xenografts; assay: In vivo rotenone treatment of intracranially implanted animals, survival; set-up: species or system NOD-SCID mice
Description: Adult male NOD-SCID mice (7-15 weeks old) were used for in vivo tumor implants following NIH and institutional (IACUC) guidelines and regulations for animal care and handling. The mice colonies were maintained at the University of Florida's animal facility. Animals were randomized to cages following implantation. For in vivo tumor invasion assay, FACS cells were intracranially implanted as previously described (Deleyrolle L P, et al. (2011) Brain 134:1331-43; Siebzehnrubl F A, et al. (2013) Hoang-Minh et al., EMBO Mol Med: 1196-1212) and invasion assay was performed 10 weeks post implant. For in vivo TMZ treatment, animals were implanted with 100,000 cells immediately after cell sorting. Tumor-bearing animals were intraperitoneally treated with 5 injections of 20 mg/kg TMZ over 5 days at 3 (hGBM L0) or 4 (hGBM L2) weeks post implantation. For in vivo restricted glucose and mitochondria targeting experiments, animals were xenografted with SCCs or FCCs and subjected to either a high carbohydrate control diet or a custom supplemented high fat/low carbohydrate dietary regimen (sHFLC) (Martuscello R T, et al. (2016) Clin Cancer Res. 22:2482-95). Each group received vehicle or rotenone treatment (0.5 mg/kg i.p, once a week for 6 weeks).

[3] = system: GBM unsorted and SCC populations; assay: Tumor sphere migration assay; format: cell-based, human
Procedure: For quantification of cell migration, tumor spheres were plated onto a laminin/poly-D-lysine coated surface at low density and in the presence of growth factors, FABP7 inhibitor (SB-FI-26), or DMSO as a solvent control. Images were taken from the same spheres 2 hours and 24 hours after plating with a Leica DM IL microscope equipped with a DFC3000G camera and Leica application suite X software. The greatest distance of outgrowing cells was measured using ImageJ, and migration distance was calculated as the difference between the two time points. Only spheres with a diameter greater than 50 μm, 2 hours after plating, were used to measure migration distance.

L1 SCCs and FCCs = assay: CyQUANT proliferation assay, FABP7 inhibitor with high or physiological glucose; format: cell-based, human; details: 5 days
Description: (FIG. 7A) GSEA comparing RNA sequencing results between SCCs and FCCs (n=3 biological replicates, L0-1-2) for the fatty acid metabolism gene signature. FDR, false discovery rate; NES, normalized enrichment score; Nom., nominal. (FIG. 7B) Results for qRT-PCR of genes differentially expressed between SCCs and FCCs using the RT2 Profiler PCR Array for Human Fatty Acid Metabolism. Changes in transcript levels are given as percent change relative to FCCs (n=3-8, p<0.05, one sample t-test). (FIG. 7C) FABP7 expression in brain (n=4), breast (n=336), colorectal (n=374), lung (n=117), ovarian (n=242), and pancreatic (n=20) cancer cell lines (**, p<0.005, ****, p<0.0001, one-way ANOVA). (FIG. 7D) Evaluation of the Bredel dataset indicated higher expression of FABP7 in glioblastoma (n=27) compared to non-malignant (n=4) brain tissue (**, p<0.005, t-test). […] (FIG. 7J) C16-BODIPY uptake was measured in L1 GBM line SCCs or FCCs cultured with or without 200 nM FABP7 inhibitor (FABP7i, each condition, n=3, *** p<0.0001, linear regression). […] Cell proliferation was assessed using CyQUANT assays 5 days after treatment (n=2-3, * p<0.05, one-way ANOVA with Tukey post-test). (FIG. 7L) C16-BODIPY uptake was measured in the L1 wild-type (WT) and CRISPR-FABP7 (crFABP7) cell line (each condition, n=3, * p<0.05, linear regression). […]

FABP7 = molecular target: T1, FABP7 (Homo sapiens, UniProt O15540); assay: C16-BODIPY fatty acid uptake by flow cytometry, FABP7 inhibition; format: cell-based; details: SCCs; 200 nM FABP7 inhibitor, L1
T1 construct: endogenous in cells; host or cells: L1 patient-derived GBM cell line, slow-cycling (SCC) and fast-cycling (FCC) cells
Procedure: (§2) Each cell line was labeled with CellTrace dye and grown for 5-7 days. Cells were then dissociated and treated with different BODIPY® FLC16 (Molecular probes) concentrations and incubation times described below. Fatty acids conjugated to C16-BODIPY fluorophore undergo native-like metabolism and transport. Dose response was performed with 0, 0.5, 2.5, 5, 10, 25, and 50 nM BODIPY, and the time course was done at a concentration of 5 nM for 1, 4, 5, 10, and 15 min. The cells were then washed and fixed with 4% paraformaldehyde. To determine the amount of fatty acid uptake, cells were analyzed by flow cytometry on a BD LSRII Flow Cytometer. Fatty acid transporter inhibitors SB-FI-26 (Cayman Chemicals, #14191) and BMS309403 (Millipore, #34310) were used to inhibit FABP7 (Kaczocha et al., 2014) and FABP3 (Furuhashi et al., 2007), respectively.

[4] = system: GBM xenograft tumor cell invasion; assay: In vivo tumor cell invasion after FABP7 inhibition; set-up: species or system NOD-SCID mice; details: in vivo inhibition of FABP7
Procedure: Tumor invasion was measured using human-specific nestin labeling (Millipore, MAB5326). Full images of brain sections were obtained by multiple gray scale imaging acquired using Spot Advanced software (Spot Imaging Solutions), merged into full images, and inverted into black-and-white images using Photoshop CS6 (Adobe Systems). Staining threshold levels were adjusted in Image J software to distinguish tumor from background, as previously described (Siebzehnrubl F A, et al. (2013) EMBO Mol Med: 1196-1212). Invasion index was obtained by calculating the ratio of the squared-perimeter distance over the area (P2/A). Dissociated tumors are associated with higher invasion indices compared to more spherical tumors characterized by lower invasion indices. High-power images of stained tissues were taken using an IX81-DSU spinning disk confocal microscope (Olympus) fitted with a 60x water immersion objective, and all images were captured as z-stacks (0.5 μm steps). For 3D imaging, pictures were acquired using a UPLSAPO 60x water objective and Hamamatsu ORCA-AG Camera. Images were captured as z-stacks (0.5 μm steps). All image analyses and 3D surface reconstructions utilized the 3i SlideBook v4.2 Software (with Deconvolution Module). Image capture settings were standardized across samples. 3D surface reconstruction rendering cut-off values were also standardized in the 3i SlideBook software.

FABP3 = molecular target: T2, FABP3 (Homo sapiens, UniProt P05413); assay: C16-BODIPY fatty acid uptake by flow cytometry, FABP3 inhibition; format: cell-based; details: SCCs; 250 nM FABP3 inhibitor
T2 construct: endogenous in cells; host or cells: patient-derived GBM cells (SCCs and FCCs)
Procedure: as §2

T2 sequence (P05413 whole entry): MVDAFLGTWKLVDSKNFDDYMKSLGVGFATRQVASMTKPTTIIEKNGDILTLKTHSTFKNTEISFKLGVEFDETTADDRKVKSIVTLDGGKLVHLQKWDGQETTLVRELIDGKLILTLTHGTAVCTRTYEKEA
T1 sequence (O15540 whole entry): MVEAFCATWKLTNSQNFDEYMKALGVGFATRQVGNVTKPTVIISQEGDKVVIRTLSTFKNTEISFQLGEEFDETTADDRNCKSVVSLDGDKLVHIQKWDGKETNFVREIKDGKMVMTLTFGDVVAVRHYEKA

## O=CC[C@@H](O)[C@H](O)[C@H](O)CO [2-DG, 2-deoxyglucose]
[1]
  average (main) effect HR: 0.74
  mortality hazard ratio (HR) versus control group: 0.84
hGBM SCCs and FCCs; 0, 5 or 20 mM for 24 hours
  cell death, sensitivity of SCCs versus FCCs to glycolysis inhibition: SCCs are less sensitive to this pharmacological inhibition than FCCs

## CN(C)C(=N)N=C(N)N [metformin]
hGBM SCCs and FCCs
  apoptotic cell death (cleaved caspase 3) in SCCs: significant increase in apoptotic cell death
hGBM cells
  GBM cell survival, combination with glucose deprivation: greatest inhibitory effect on GBM cell survival

## C=C(C)[C@H]1Cc2c(ccc3c2O[C@@H]2COc4cc(OC)c(OC)cc4[C@@H]2C3=O)O1 [rotenone]
hGBM SCCs and FCCs
  apoptotic cell death (cleaved caspase 3) in SCCs: significant increase in apoptotic cell death
hGBM cells
  GBM cell survival, combination with glucose deprivation: greatest inhibitory effect on GBM cell survival
[2]; FCC-implanted animals, 0.5 mg/kg i.p. once a week
  survival: did not gain any survival benefit
[2]; SCC-implanted animals, 0.5 mg/kg i.p. once a week, versus vehicle
  survival: significant increase in survival
[2]; animals implanted with total unsorted population
  survival: improved survival

## O=C(O)C1[C@H](c2ccccc2)C(C(=O)Oc2cccc3ccccc23)[C@H]1c1ccccc1 (stereo partly shown) [SB-FI-26]
[1]
  average (main) effect HR: 0.38
  mortality hazard ratio (HR) versus control group: 0.43
[3]; FACS-sorted SCCs, all cell lines tested
  cell migration: significant decrease of cell migration
[3]; unsorted total GBM populations, all three lines, 1 and 10 μM
  cell migration: significantly reduced overall cell migration
L1 SCCs and FCCs; L1 FCCs, decreased glucose plus 200 nM FABP7 inhibitor
  FCC growth: did not result in any additional growth inhibitory effect on FCCs
L1 SCCs and FCCs; L1 SCCs, lower glucose plus 200 nM FABP7 inhibitor
  SCC survival/proliferation: significantly inhibited
FABP7
  uptake of fluorescently labeled fatty acid C16-BODIPY: significantly decreased
[4]
  tumor cell invasion in vivo: decreased of cell invasion

## CCc1c(-c2ccccc2)c(-c2ccccc2)nn1-c1ccccc1-c1cccc(OCC(=O)O)c1 [FABP3 inhibitor]
FABP3
  uptake of fluorescently labeled fatty acid C16-BODIPY: significantly decreased
